# Experimental data: patent US8993574B2, “Pyrrole antifungal agents” (F2G Ltd, priority 2008, dated 2015)
# Tests used:
# Assay type in all cases: cell-based
# [1] = test system: Aspergillus fumigatus AF293; assay: MIC, YAG medium; conditions: Aspergillus fumigatus, 24 h at 35° C, MIC banded into grades, read-out: MIC grade, A. fumigatus
# Summary of the method: (§1)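 DMSO stocks diluted in water as doubling series; spore suspension in YAG (glucose, NH4Cl, yeast extract) added to give 1−2×10^4 cfu/mL. 35° C, 24 h. Growth by OD485; MIC at >70% inhibition, mg/L.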
# Aspergillus terreus AT49 [2] = assay: MIC, YAG medium; conditions: Aspergillus terreus, 24 h at 35° C, MIC banded into grades, read-out: MIC grade, A. terreus 49
# Summary of the method: as §1
# [3] = test system: Aspergillus fumigatus AF210; assay: MIC, YAG medium; conditions: Aspergillus fumigatus, 24 h at 35° C, MIC banded into grades, read-out: MIC grade, A. fumigatus 210
# Summary of the method: as §1
# Aspergillus flavus [4] = assay: MIC, YAG medium; conditions: Aspergillus flavus, 24 h, 24 h at 35° C, MIC banded into grades, read-out: MIC grade, A. flavus
# Summary of the method: as §1
# Aspergillus niger [5] = assay: MIC, YAG medium; conditions: Aspergillus niger, 24 h at 35° C, MIC banded into grades, read-out: MIC grade, A. niger
# Summary of the method: as §1
# Aspergillus terreus AT4 [6] = assay: MIC, YAG medium; conditions: Aspergillus terreus, 24 h at 35° C, MIC banded into grades, read-out: MIC grade, A. terreus
# Summary of the method: as §1
# Candida parapsilosis = assay: MIC, RPMI medium; conditions: Lodderomyces parapsilosis, 24-48 h at 35° C., >80% growth inhibition, banded into grades
# Summary of the method: (§2)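 RPMI (2% glucose, 0.135 M MOPS, pH 7.0) microdilution; drug 50-0.05 mg/L doubling series; inoculum 1−2×10^4 cfu/mL; 24-48 h, 35° C; OD485; MIC = lowest conc. with >80% inhibition vs drug-free control.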
# [7] = test system: Aspergillus fumigatus AF293; assay: MIC, RPMI medium; conditions: Aspergillus fumigatus, AF293, MIC banded into grades, read-out: MIC grade, A. fumigatus
# Summary of the method: as §2
# Candida albicans = assay: MIC, RPMI medium; conditions: Candida albicans, 24-48 h at 35° C., >80% growth inhibition, banded into grades
# Summary of the method: as §2
# Aspergillus terreus AT49 [8] = assay: MIC, RPMI medium; conditions: Aspergillus terreus, AT49, MIC banded into grades, read-out: MIC grade, A. terreus 49
# Summary of the method: as §2
# Candida tropicalis = assay: MIC, RPMI medium; conditions: Candida tropicalis, 24-48 h at 35° C., >80% growth inhibition, banded into grades
# Summary of the method: as §2
# Candida krusei = assay: MIC, RPMI medium; conditions: Pichia kudriavzevii, 24-48 h at 35° C., >80% growth inhibition, banded into grades
# Summary of the method: as §2
# [9] = test system: Aspergillus fumigatus AF210; assay: MIC, RPMI medium; conditions: Aspergillus fumigatus, AF210, MIC banded into grades, read-out: MIC grade, A. fumigatus 210
# Summary of the method: as §2
# Aspergillus flavus [10] = assay: MIC, RPMI medium; conditions: Aspergillus flavus, MIC banded into grades, read-out: MIC grade, A. flavus
# Summary of the method: as §2
# Aspergillus niger [11] = assay: MIC, RPMI medium; conditions: Aspergillus niger, MIC banded into grades, read-out: MIC grade, A. niger
# Summary of the method: as §2
# Candida glabrata = assay: MIC, RPMI medium; conditions: Nakaseomyces glabratus, 24-48 h at 35° C., >80% growth inhibition, banded into grades
# Summary of the method: as §2
# Aspergillus terreus AT4 [12] = assay: MIC, RPMI medium; conditions: Aspergillus terreus, AT4, MIC banded into grades, read-out: MIC grade, A. terreus
# Summary of the method: as §2
MIC [1] [mg/L],MIC (Aspergillus terreus AT49 [2]) [mg/L],MIC [3] [mg/L],MIC (Aspergillus flavus [4]) [mg/L],MIC (Aspergillus niger [5]) [mg/L],MIC (Aspergillus terreus AT4 [6]) [mg/L],MIC (Candida parapsilosis) [mg/L],MIC [7] [mg/L],MIC (Candida albicans) [mg/L],MIC (Aspergillus terreus AT49 [8]) [mg/L],MIC (Candida tropicalis) [mg/L],MIC (Candida krusei) [mg/L],MIC [9] [mg/L],MIC (Aspergillus flavus [10]) [mg/L],MIC (Aspergillus niger [11]) [mg/L],MIC (Candida glabrata) [mg/L],MIC (Aspergillus terreus AT4 [12]) [mg/L],SMILES
< 1,< 1,< 1,< 1,1 to 10,< 1,< 1,< 1,1 to 10,< 1,< 1,< 1,< 1,< 1,< 1,< 1,< 1,"COCn1ccc(-c2ccccc2)c1C(=O)C(=O)Nc1ccc(N2CCN(c3cc(C)cc(C)n3)CC2)cc1 [Example 63, N-{4-[4-(4,6-Dimethyl-pyridin-2-yl)-piperazin-1-yl]-phenyl}-2-(1-methoxymethyl-3-phenyl-1H-pyrrol-2-yl)-2-oxo-acetamide]"
< 1,< 1,< 1,1 to 10,> 10,< 1,< 1,1 to 10,1 to 10,1 to 10,1 to 10,1 to 10,1 to 10,1 to 10,> 10,< 1,1 to 10,"COCCn1ccc(-c2cccc(Cl)c2)c1C(=O)C(=O)Nc1ccc(N2CCN(c3cc(C)cc(C)n3)CC2)cc1 [Example 70, 2-[3-(3-Chloro-phenyl)-1-(2-methoxy-ethyl)-1H-pyrrol-2-yl]-N-{4-[4-(4,6-dimethyl-pyridin-2-yl)-piperazin-1-yl]-phenyl}-2-oxo-acetamide]"
> 10,> 10,> 10,> 10,1 to 10,> 10,1 to 10,> 10,1 to 10,1 to 10,1 to 10,1 to 10,> 10,> 10,1 to 10,1 to 10,1 to 10,"Cc1cc(C)nc(N2CCN(c3ccc(NC(=O)C(=O)c4cc(-c5ccccc5)cn4CCN(C)C)cc3)CC2)c1 [Example 85, 2-[1-(2-Dimethylamino-ethyl)-4-phenyl-1H-pyrrol-2-yl]-N-{4-[4-(4,6-dimethyl-pyridin-2-yl)-piperazin-1-yl]-phenyl}-2-oxo-acetamide]"
< 1,< 1,< 1,< 1,< 1,< 1,,< 1,,1 to 10,,,1 to 10,1 to 10,1 to 10,,1 to 10,"CSCn1c(C)cc(-c2ccccc2)c1C(=O)C(=O)Nc1ccc(N2CCN(c3cc(C)cc(C)n3)CC2)cc1 [Example 137, N-{4-[4-(4,6-Dimethyl-pyridin-2-yl)-piperazin-1-yl]-phenyl}-2-(5-methyl-1-methylsulfanylmethyl-3-phenyl-1H-pyrrol-2-yl)-2-oxo-acetamide]"
